Test results reported in ChEMBL document CHEMBL1201862, “PubChem BioAssay data set” (2004).
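The compound was tested at five concentrations on cells cultured in 96-well plates, with a 48-hour exposure period. Abbreviation: GI50, concentration required for 50% inhibition of growth.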 Active and inactive are the calls of the source. Rule as the data show it: active = GI50 up to about 1.1 µM and inactive = higher.

Experiments:
Experiment in all cases: DTP human tumour cell line panel, 48 h
[1] = system: SF-539
[2] = system: HOP-62
[3] = system: OVCAR-5
[4] = system: NCI-H23
[5] = system: SK-MEL-5
[6] = system: HCT-15
[7] = system: ACHN
[8] = system: LOX IMVI
[9] = system: K562
[10] = system: UO-31
[11] = system: UACC-257
[12] = system: MOLT-4
[13] = system: HOP-92
[14] = system: SK-MEL-28
[15] = system: CAKI-1
[16] = system: TK-10
[17] = system: 786-0
[18] = system: KM12
[19] = system: PC-3
[20] = system: SK-MEL-2

Row | SMILES | GI50 [1] | GI50 [2] | GI50 [3] | GI50 [4] | GI50 [5] | GI50 [6] | GI50 [7] | GI50 [8] | GI50 [9] | GI50 [10] | GI50 [11] | GI50 [12] | GI50 [13] | GI50 [14] | GI50 [15] | GI50 [16] | GI50 [17] | GI50 [18] | GI50 [19] | GI50 [20]
1 | O=C(CCl)Nc1ccc(C(=O)N/N=C/c2ccc(Cl)cc2)cc1 | 2.01 µM (inactive) | 3.52 µM (inactive) | 18.8 µM (inactive) | 2.44 µM (inactive) | 5.77 µM (inactive) | 4.63 µM | 2.59 µM (inactive) | 1.48 µM (inactive) | 2.89 µM (inactive) | 4.46 µM (inactive) | 1.67 µM (inactive) | 1.9 µM (inactive) | 2 µM (inactive) | 5.68 µM (inactive) | 2.82 µM (inactive) | 15.9 µM (inactive) | 1.58 µM (inactive) | 0.889 µM (active) | 2.02 µM (inactive) | 5.58 µM (inactive)
2 | CCOC(=O)c1cc(C#N)[nH]c1-c1ccsc1 | 28.6 µM (inactive) | 59.8 µM (inactive) | 34.8 µM (inactive) | 35.5 µM (inactive) | 34.9 µM (inactive) | 29.1 µM | 39.5 µM (inactive) | 36.2 µM (inactive) | 25.6 µM (inactive) | 0.114 µM (active) | 36.2 µM (inactive) | 15.3 µM (inactive) | 38.6 µM (inactive) | 40.2 µM (inactive) | 50.7 µM (inactive) | 38.5 µM (inactive) | 44 µM (inactive) | 25.1 µM (inactive) | 25.5 µM (inactive) | 46.7 µM (inactive)
3 | Brc1cccc(/C=C/CN2CCN(CCOC(c3ccccc3)c3ccccc3)CC2)c1 | 15.7 µM (inactive) | 15.9 µM (inactive) | 16.2 µM (inactive) | 16.5 µM (inactive) | 15.1 µM (inactive) | 15.6 µM | 17.5 µM (inactive) | 14.5 µM (inactive) | 7.69 µM (inactive) | 13.1 µM (inactive) | 17.9 µM (inactive) | 8.47 µM (inactive) | 6 µM (inactive) | 17.8 µM (inactive) | 15.9 µM (inactive) | 19.3 µM (inactive) | 15.7 µM (inactive) | 14.8 µM (inactive) | 13.2 µM (inactive) | 17.8 µM (inactive)
4 | Nc1ccc(C(=O)O)cc1 [AMINOBENZOIC ACID] | > 100 µM (inactive) | > 100 µM (inactive) | > 100 µM (inactive) | > 100 µM (inactive) | > 100 µM (inactive) | 21.1 µM | > 100 µM (inactive) | > 100 µM (inactive) | > 100 µM (inactive) | > 100 µM (inactive) | > 100 µM (inactive) | > 100 µM (inactive) | > 100 µM (inactive) | > 100 µM (inactive) | > 100 µM (inactive) | > 100 µM (inactive) | > 100 µM (inactive) | > 100 µM (inactive) | > 100 µM (inactive) | > 100 µM (inactive)
5 | CCC[C@H](C)[C@H]1NC(=O)[C@@H](NC(=O)[C@@H](CC(C)C)N(C)C(=O)C2CCCN2C(=O)[C@H](C)O)[C@@H](C)OC(=O)[C@H](CC(C)C)N(C)C(=O)[C@@H]2CCCN2C(=O)[C@H](CC(C)C)NC(=O)[C@@H](C)C(=O)[C@H](C(C)C)OC(=O)C[C@@H]1O (stereo not given in full) | < 0.0025 µM (active) | < 0.0025 µM (active) | < 0.0025 µM (active) | < 0.0025 µM (active) | < 0.0025 µM (active) | 0.0328 µM | < 0.0025 µM (active) | < 0.0025 µM (active) | < 0.0025 µM (active) | 0.0107 µM (active) | < 0.0025 µM (active) | < 0.0025 µM (active) | < 0.0025 µM (active) | < 0.0025 µM (active) | 0.0162 µM (active) | < 0.0025 µM (active) | < 0.0025 µM (active) | < 0.0025 µM (active) | < 0.0025 µM (active) | < 0.0025 µM (active)
